Where two headings read alike, the source gives them in different places.
Key:
[1] = biological target: T1, single-chain plasminogen activator (Homo sapiens, UniProt P00750); experiment: Influence of proteinase inhibitors on hydrolysis of Boc-Phe-Ser-Arg-MCA, single-chain form; assay type: biochemical
T1 construct: culturing human normal tissue derived cells such as cells derived from human embryonic kidney, intestines, lungs; endogenous in cells; host or cells: human normal tissue derived cells (e.g. human embryonic kidney or lung cells); secreted protein purified from the culture liquor in the presence of aprotinin
T1 sequence (P00750 36-562): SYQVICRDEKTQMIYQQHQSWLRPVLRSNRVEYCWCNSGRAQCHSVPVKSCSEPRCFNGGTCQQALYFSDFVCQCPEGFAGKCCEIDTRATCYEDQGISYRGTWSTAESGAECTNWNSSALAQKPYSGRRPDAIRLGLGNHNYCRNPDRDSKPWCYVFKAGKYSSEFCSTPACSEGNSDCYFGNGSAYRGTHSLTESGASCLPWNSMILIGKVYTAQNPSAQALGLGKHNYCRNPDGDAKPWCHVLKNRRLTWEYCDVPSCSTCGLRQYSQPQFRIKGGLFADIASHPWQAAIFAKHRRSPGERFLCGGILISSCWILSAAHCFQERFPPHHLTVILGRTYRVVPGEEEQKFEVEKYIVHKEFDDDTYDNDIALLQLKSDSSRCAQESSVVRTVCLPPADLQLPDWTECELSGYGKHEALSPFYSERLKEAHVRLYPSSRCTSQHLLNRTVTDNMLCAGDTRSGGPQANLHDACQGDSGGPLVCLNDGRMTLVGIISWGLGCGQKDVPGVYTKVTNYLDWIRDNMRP
Experimental: (§1) To 50 µℓ of either each of the substances of this invention (100 U/mt) or urokinase (100 IU/mℓ) were added 50 µℓ of one of a number of solutions of various proteinase inhibitors and 300 µℓ of a 0.05 M tris-HCt buffer (pH 8.0) containing 0.1 M sodium chloride, and each reaction was effected at 37°C for 5 minutes. Thereafter, 100 µℓ of 0.1 mM of Boc-Phe-Ser-Arg-MCA (Peptide Institute, Inc.) was added, and each reaction was effected at 37°C.for 60 minutes. Thereafter, 0.5 mℓ of 20% acetic acid was added to terminate the reaction which was then measured for the formed aminomethylcoumarin at an excitation wavelength of 370 nm, a slit width of 2 nm, an emission wavelength of 460 nm and a slit width of 2 nm to determine the hydrolysis activity.
(§2) The concentrations (IC50) of the proteinase inhibitors which inhibit 50% of the activity of the substances of this invention were determined and the results are shown in Table 2.

[2] = biological target: T2, double-chain plasminogen activator (Homo sapiens, UniProt P00750); experiment: Influence of proteinase inhibitors on hydrolysis of Boc-Phe-Ser-Arg-MCA, double-chain form; assay type: biochemical
T2 construct: endogenous in cells; host or cells: human normal tissue derived cells (e.g. human embryonic kidney or lung cells); secreted protein purified from the culture liquor and converted by enzyme (plasmin) treatment or incubation
T2 sequence (P00750 311-562 limits assumed): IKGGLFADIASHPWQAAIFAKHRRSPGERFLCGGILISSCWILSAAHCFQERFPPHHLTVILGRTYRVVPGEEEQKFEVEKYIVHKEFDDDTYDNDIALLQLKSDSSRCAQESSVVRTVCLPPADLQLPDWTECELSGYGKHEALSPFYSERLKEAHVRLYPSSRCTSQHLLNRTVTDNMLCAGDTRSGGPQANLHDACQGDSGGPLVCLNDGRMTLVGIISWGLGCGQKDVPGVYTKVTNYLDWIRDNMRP
T2 sequence (P00750 36-310 partner limits assumed): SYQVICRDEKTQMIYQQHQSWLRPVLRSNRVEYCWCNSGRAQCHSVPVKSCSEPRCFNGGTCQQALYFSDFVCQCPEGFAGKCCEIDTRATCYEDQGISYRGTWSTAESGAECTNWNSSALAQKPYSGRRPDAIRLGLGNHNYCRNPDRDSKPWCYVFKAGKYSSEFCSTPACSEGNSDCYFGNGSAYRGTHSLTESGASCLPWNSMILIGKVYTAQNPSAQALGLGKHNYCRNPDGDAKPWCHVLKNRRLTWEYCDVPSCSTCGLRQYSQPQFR
Experimental: as §1, §2

SMILES | IC50 [1] | IC50 [2] | IC50 ([1]; Single-Chain Structure 100 U/mℓ, substrate Boc-Phe-Ser-Arg-MCA, 37°C 60 minutes, read-out: IC50) | IC50 ([2]; Double-Chain Structure 100 U/mℓ, substrate Boc-Phe-Ser-Arg-MCA, 37°C 60 minutes, read-out: IC50)
CC(=O)N[C@@H](CC(C)C)C(=O)N[C@@H](CC(C)C)C(=O)N[C@H](C=O)CCCNC(=N)N [Leupeptin] | 280 µM | 570 µM | – | –
CCOC(=O)c1ccc(OC(=O)CCCCCNC(=N)N)cc1 [FOY] | – | – | 17 µM | 92 µM

Reference: patent EP0151996A2, “Process for the Preparation of a double-chain plasminogen activator” (Asahi Kasei Kogyo Kabushiki Kaisha, priority 1984, dated 1985)
